Source: PMC11021962, “Coupling and regulation mechanisms of the flavin-dependent halogenase PyrH observed by infrared difference spectroscopy” (The Journal of Biological Chemistry, 2024)

Key:
PyrH [1] = target: T1, PyrH (Streptomyces rugosporus, UniProt A4D0H5); assay: UV-vis spectroscopy after reconstitution and washing; light-induced FTIR difference spectroscopy; type: binding; settings: pH 8.3, 20 mM NaCl, 60 mM potassium phosphate
PyrH [2] = target: T1, PyrH; assay: light-induced FTIR difference spectroscopy; settings: 3 mM compound, FAD-bound enzyme, 20 mM chloride, 35 mM DTT, pH 8.3, 10 °C, anaerobic, 450 nm photoreduction; substrate-binding site, allosterically coupled to FAD site

T1 sequence (A4D0H5 whole entry): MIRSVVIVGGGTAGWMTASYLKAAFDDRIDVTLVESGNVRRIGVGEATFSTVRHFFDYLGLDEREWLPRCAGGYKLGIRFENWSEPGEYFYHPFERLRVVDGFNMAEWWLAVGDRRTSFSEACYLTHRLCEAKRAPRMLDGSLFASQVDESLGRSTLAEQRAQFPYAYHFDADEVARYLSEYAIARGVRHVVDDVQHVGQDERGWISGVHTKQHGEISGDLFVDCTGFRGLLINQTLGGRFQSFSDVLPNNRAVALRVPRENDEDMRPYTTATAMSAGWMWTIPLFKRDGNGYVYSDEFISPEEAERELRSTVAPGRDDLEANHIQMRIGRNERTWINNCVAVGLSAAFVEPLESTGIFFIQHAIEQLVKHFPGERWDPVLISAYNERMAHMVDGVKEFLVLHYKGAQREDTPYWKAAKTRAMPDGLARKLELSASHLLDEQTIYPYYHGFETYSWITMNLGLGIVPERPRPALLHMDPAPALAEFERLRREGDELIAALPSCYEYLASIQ

Compound | UV-vis spectroscopy after reconstitution and washing; light-induced FTIR differe (PyrH [1]) | light-induced FTIR difference spectroscopy (PyrH [2])
Cc1cc2nc3c(=O)[nH]c(=O)nc-3n(C[C@H](O)[C@H](O)[C@H](O)COP(=O)(O)OP(=O)(O)OC[C@H]3O[C@@H](n4cnc5c(N)ncnc54)[C@H](O)[C@@H]3O)c2cc1C [FAD] | FAD remained bound to PyrH in all three samples after extensive washing steps | –
N[C@@H](Cc1c[nH]c2ccc(Cl)cc12)C(=O)O [5-chlorotryptophan] | – | The binding of 5-chlorotryptophan also leads to a reduction of secondary structure changes
N[C@@H](Cc1c[nH]c2ccccc12)C(=O)O [tryptophan] | – | Tryptophan binding causes a change in the environment of FAD
